Experimental data published in patent US20070172957A1, “Methods of identifying anti-inflammatory macrolides” (TAISHO PHARMACEUTICAL CO., LTD., priority 2004, published 2007).

Tests used:
[1] = test system: tobacco smoke-induced pulmonary emphysema; assay: Model mice with tobacco smoke-induced pulmonary emphysema; format: in vivo; conditions: for pulmonary alveolus size: 6 months, mean ± SE; for pulmonary emphysema rate: relative to non-smoking
Description: The model mice with tobacco smoke-induced pulmonary emphysema mimicking human pulmonary emphysema were constructed according to the method as described in Hautamaki, R. D. et al., Science 1997, 277: 2002-2004 or Shapiro, S. D. et al., Am. […] Specifically, C57black/6 female mice of 12-weeks old were exposed to tobacco smoke at two cigarettes per day, 6 days per week for 6 months.
(§1) Administration of clarithromycin was carried out orally at the rate of 25, 50 or 100 […] twice daily (morning and evening) during the tobacco smoke exposure period. The plasma AUC0-8 of clarithromycin obtained when 50 mg/kg was singly administered to the mice was 2.677 μg·hr/ml while the plasma AUC0-8 of clarithromycin obtained when 200 mg of clarithromycin was singly administered to a normal human subject was 8.98 μg·hr/ml. The former concentration was substantially lower than the latter one and was an adequate concentration to be used clinically.
The index of the improvement to the pulmonary emphysema condition followed the mothod as described in Hautamaki, R. D. et al., ibid. or Shapiro, S. D. et al., ibid.
Hematoxylin eosin-stained pathological specimens were prepared from the model mice and ten visual fields under a microscope were randomly selected, where the average sizes of pulmonary alveoli were measured. An increase in the average size of pulmonary alveolus is considered as an index of the destruction of pulmonary alveoli, i.e., the pulmonary emphysema condition.
The cell counts of inflammatory cells (microphages and neutrophiles) in the bronchoalveolar lavage fluids after six months' exposure were measured to provide an index of the inflammatory condition in the model mice with tobacco smoke-induced pulmonary emphysema.
It has been reported that as pulmonary emphysema progresses, pulmonary functions deteriorate. It has also been known that the pulmonary compliance, which is an index of pulmonary functions, increases in model mice with tobacco smoke-induced pulmonary emphysema. Thus, the pulmonary compliance was measured in the model mice with tobacco smoke-induced pulmonary emphysema after six months' exposure.

[2] = Plasma AUC of clarithromycin after single administration to mice; format: in vivo; conditions: C57black/6, mouse, oral, 50 mg/kg singly administered, read-out: plasma AUC0-8
Description: as §1

[3] = Plasma AUC of clarithromycin after single administration to a normal human subject; format: in vivo; conditions: 200 mg singly administered, read-out: plasma AUC0-8
Description: as §1

THP-1 cells = assay: Microarray of differentially expressed genes in THP-1 cells, +/- LPS, +/- Clarithromycin or FMA9045 (Appendix B, Appendix F); format: cell-based; conditions: for Total # Differential Genes (95% confidence): THP-1, min fold change threshold 1.5 (Clari), 1.3 (FMA)
Source text: (§2) The data for each cell line (A549 and THP-1) are presented in Appendices A and B. For each cell line, the data for all of the hybridizations are represented together in the same table. For each hybridization, there are two columns: the weighted mean ratio (wtd mean ratio) and the minimum fold change (min fold change). The “min fold change” represents the minimum change in expression that meets the 95% confidence threshold. It can be estimated from the log ratio and standard deviation, assuming that the uncertainty in the ratio is normally distributed. […] See also Cheng Li and Wing Hung Wong, “Model-based analysis of oligonucleotide arrays: model validation, design issues and standard error application,” Genome Biology 2001 2(8):research0032.1-0032.11 (published 3 Aug. 2001).
(§3) The analysis method to generate these tables was similar for A549 and THP-1, cells. […] It is important to note that the fold change threshold is an absolute number, and the direction of change (increased or decreased expression) must be determined by the looking at the weighted mean ratio. The significance threshold criteria are included in parentheses in each “min fold change” column. The weighted mean ratios representing significant differentials (95% confidence, p value <0.05) are in bold. The “Spot IDs” correspond to publicly available cDNA sequences for the region of the gene represented at that spot on the microarray chip.
(§4) For the A549 and THP-1 cell lines (Appendix A and B, respectively), the first table for each cell line (“total differentials”) represents all of the genes that show differential expression in at least one of the hybridizations. The second table for A549 and THP-1 cells (“drug effects, sum ≧4.5” and “drug effects, sum ≧5”, respectively) has an additional final column, “sum of min fold change.” This column represents the sum of the minimum fold changes for all of the groups except the stimulus alone. This column was used to rank the genes in order of the greatest global drug effect, independent of whether the drug used was Clarithromycin or FMA9045 and independent of stimulus effect.
For THP-1 cells, a sum min fold change ≧5.0 was used as the threshold for ranking the most highly regulated drug effects. In both tables in Appendix B, the genes that meet this criterion (sum ≧5) are in bold and in italics. A larger sum min fold change threshold was used for THP-1 cells, because the macrolide response in this cell line was more robust than that in A549 cells.
The influence of a macrolide compound on the level of expression of the gene of the material related to inflammatory disease of the lung is summarized in Appendix F. In Appendix F, ‘+/−Clari, wtd means’ denotes gene induction (suppression) when clarithromycin is added to THP-1 cells, and the larger the figure, the more the gene is expressed. Furthermore, ‘+LPS+/−Clari, wtd means’ denotes gene induction (suppression) when clarithromycin is added to LSP-stimulated THP-1 cells, and the smaller the figure, the more the gene expression is suppressed.

A549 cells = assay: Microarray of differentially expressed genes in A549 cells, +/- IL-1β, +/- Clarithromycin or FMA9045 (Appendix A); format: cell-based; conditions: for Total # Differential Genes (95% confidence): A549, min fold change threshold 1.3
Source text: as §2, §3, §4
As noted above, a sum min fold change ≧4.5 was used as the threshold for ranking the most highly regulated drug effects. In both tables in Appendix A, the genes that meet this criterion (sum ≧4.5) are in bold, and those genes that are bold and italics are the most highly regulated genes and have a min fold change ≧5.0.

AUC(0-t) [2]: 2680 ng·h/mL | AUC(0-t) [3]: 8980 ng·h/mL
Compound: CC[C@H]1OC(=O)[C@H](C)[C@@H](O[C@H]2C[C@@](C)(OC)[C@@H](O)[C@H](C)O2)[C@H](C)[C@@H](O[C@@H]2O[C@H](C)C[C@H](N(C)C)[C@H]2O)[C@](C)(OC)C[C@@H](C)C(=O)[C@H](C)[C@@H](O)[C@]1(C)O [clarithromycin]
cell count of macrophages in bronchoalveolar lavage fluids ([1]; after six months' exposure, FIG. 4A): reduced | cell count of neutrophiles in bronchoalveolar lavage fluids ([1]; after six months' exposure, FIG. 4B): reduced | pulmonary compliance ([1]; after six months' exposure, FIG. 5): recovered | improvement factor ([1]; smoking + CAM 25 mg/kg): 47% | pulmonary alveolus size ([1]; smoking + CAM 25 mg/kg orally twice daily): 35.60 ± 1.425 μm | pulmonary emphysema rate ([1]; smoking + CAM 25 mg/kg): 10.6% | improvement factor ([1]; smoking + CAM 50 mg/kg): up to 87% | pulmonary alveolus size ([1]; smoking + CAM 50 mg/kg orally twice daily): 33.16 ± 0.890 μm | improvement factor ([1]; smoking + CAM 50 mg/kg, listed as CAM): 85% | pulmonary emphysema rate ([1]; smoking + CAM 50 mg/kg): 3% | improvement factor ([1]; smoking + CAM 100 mg/kg): 66.5% | pulmonary alveolus size ([1]; smoking + CAM 100 mg/kg orally twice daily): 34.35 ± 0.936 μm | pulmonary emphysema rate ([1]; smoking + CAM 100 mg/kg): 6.7% | expression of SERPINB3 gene (THP-1 cells; Category 1, Appendix F): enhancing the expression | Total # Differential Genes (95% confidence) (THP-1 cells; +/- drug alone): 127 | Total # Differential Genes (95% confidence) (THP-1 cells; LPS +/- drug): 120 | LPS +/− clari, wtd mean ratio (THP-1 cells; THP-1 cells with LPS, gene given in each table row): 0.9 | LPS +/− clari, wtd mean ratio (THP-1 cells; THP-1 cells, LPS stimulated, with vs without clari, gene/spot = table row): 0.9 | Clari treated, wtd mean ratio (THP-1 cells; THP-1 cells, no LPS, gene given in each table row): 0.9 | Clari treated, wtd mean ratio (THP-1 cells; THP-1 cells, microarray expression ratio, gene/spot = table row): 0.9 | expression of proteinase genes (MMP12, MMP9, MMP19, cathepsin K, cathepsin C) (THP-1 cells; induced during inflammatory stimulation, Category 2): suppresses the expression | expression of the chemokine gene (THP-1 cells; induced during inflammatory stimulation, Category 3): suppresses expression | Total # Differential Genes (95% confidence) (A549 cells; +/- drug alone): 117 | Total # Differential Genes (95% confidence) (A549 cells; IL-1 +/- drug): 127 | IL1b +/− clari, wtd mean ratio (A549 cells; A549 cells with IL1b stimulation, microarray expression ratio, gene = SpotID/GeneSymbol): 0.9 | Clari treated, wtd mean ratio (A549 cells; A549 cells, Clari treated, no IL1, expression ratio of the gene/spot of the table line): 0.9 | IL1b +/− clari, wtd mean ratio (A549 cells; A549 cells, IL1b stimulated, with vs without clari, gene/spot of the table line): 0.9 | Clari treated, wtd mean ratio (A549 cells; A549 cells, microarray expression ratio, gene = SpotID/GeneSymbol): 0.9 | Clari treated, wtd mean ratio (A549 cells; A549 cells, per microarray spot/gene, Clari treated, no IL1): 0.9 | IL1b +/− clari, wtd mean ratio (A549 cells; A549 cells, per microarray spot/gene, IL1b stimulated, with vs without clari): 0.9
